Results as given in patent US20260226084A1, “DUAL RAF AND TUBULIN INHIBITORS AND METHODS OF USE THEREOF” (Deciphera Pharmaceuticals, LLC, priority 2023, published 2026).
Where two headings read alike, the source gives them in different places.

How the values were obtained:
MiaPaca-2 cells = test: MiaPaca-2 Cell Proliferation Assay; type: cell-based; conditions: Table 2, read-out: Inhibition of cell proliferation in MiaPaca-2 (IC50 class)
Procedure: Miapaca-2 cells (catalog #CRL-1420) are obtained from the American Type Culture Collect (ATTC, Manassas, VA). Briefly, cells were grown in DMVEM supplemented with 10 characterized fetal bovine serum (Invitrogen, Carlsbad, CA), 2.5% New Zealand sourced horse serum and 1 Penicillin/Streptomycin/L-Glutamine at 37° C., 5 CO2, and 95% humidity. Cells are expanded until reaching 70-95% confluency at which point they are sub-cultured or harvested for assay use. A serial dilution of test compound is dispensed into a 96-well black clear bottom plate in triplicate. Three thousand cells are added per well in 200 μL complete growth medium in the 96-well plate. Plates are incubated for 67 to 72 h at 37° C., 5% CO2, and 95% humidity. At the end of the incubation, 40 μL of a 440 μM solution of resazurin (Sigma, St. Louis, MO) in PBS is added to each well of the plate and plates are incubated for an additional 5 to 6 h at 37° C., 5% CO2, and 95% humidity. Plates are read on a Synergy2 or equivalent reader (Biotek, Winooski VT) using an excitation of 540 nm and an emission of 600 nm. Data is analyzed using Prism software (Graphpad, San Diego, CA) to calculate IC50 values.

[1] = biological target: T1, B-Raf kinase (SEQ ID NO: 1) (Homo sapiens, UniProt P15056); test: Biochemical Assay for B-Raf (coupled pyruvate kinase/lactate dehydrogenase assay); conditions: 1 mM ATP; read-out: BRAF (inhibition of biochemical activity, IC50)
T1 construct: GST (N); purchased Sigma

HCT-116 cells = test: HCT-116 Cell Proliferation Assay; type: cell-based; conditions: Homo sapiens, HCT-116, HCT-116 cells; Table 2; read-out: Inhibition of cell proliferation in HCT-116 (IC50 class)
Procedure: HCT-116 cells (catalog #CCL-247) are obtained from the American Type Culture Collect (ATCC, Manassas, VA). Briefly, cells are grown in McCoy's 5A supplemented with 10% characterized fetal bovine serum (Invitrogen, Carlsbad, CA) and 1% Penicillin/Streptomycin/L-Glutamine at 37° C., 5% CO2, and 95% humidity. Cells are expanded until reaching 70-95% confluency at which point they are subcultured or harvested for assay use. A serial dilution of test compound is dispensed into a 384-well black clear bottom plate in triplicate. 375 cells are added per well in 50 μL complete growth medium in the 384-well plate. Plates are incubated for 67 to 72 hours at 37° C., 5% CO2, and 95% humidity. At the end of the incubation, 40 μL of a […] solution of resazurin (Sigma, St. Louis, MO) in PBS is added to each well of the plate and plates are incubated for an additional 4 to 5 h at 37° C., 5% CO2, and 95% humidity. Plates are read on a Synergy2 or equivalent reader (Biotek, Winooski, VT) using an excitation of 540 nm and an emission of 600 nm. Data is analyzed using Prism software (Graphpad, San Diego, CA) to calculate IC50 values.

Pa16c cells = test: Pa16c Cell Proliferation Assay; type: cell-based; conditions: Table 2, read-out: Inhibition of cell proliferation in Pa16c (IC50 class)
Procedure: Pa16c cells are obtained from Dr. Channing Der, University of North Carolina at Chapel Hill. Briefly, cells are grown in Dulbecco's Modified Eagle Medium supplemented with 10% characterized fetal bovine serum (Invitrogen, Carlsbad, CA) and 1% Penicillin/Streptomycin/L-Glutamine at 37° C., 5% CO2, and 95% humidity. Cells are expanded until reaching 70-95% confluency at which point they are sub-cultured or harvested for assay use. A serial dilution of test compound is dispensed into a 384-well black clear bottom plate in triplicate. 750 cells are added per well in 50 μL complete growth medium in the 384-well plate. Plates are incubated for 67 to 72 h at 37° C., 5% CO2, and 95% humidity. At the end of the incubation, 40 μL of a 440 μM solution of resazurin (Sigma, St. Louis, MO) in PBS is added to each well of the plate and plates are incubated for an additional 18 to 24 hours at 37° C., 5% CO2, and 95% humidity. Plates are read on a Synergy2 or equivalent reader (Biotek, Winooski, VT) using an excitation of 540 nm and an emission of 600 nm. Data is analyzed using Prism software (Graphpad, San Diego, CA) to calculate IC50 values.

[2] = biological target: T2, C-Raf kinase (SEQ ID NO: 2) (Homo sapiens, UniProt P04049, Y340D/Y341D); test: Biochemical Assay for C-Raf (coupled pyruvate kinase/lactate dehydrogenase assay); conditions: 1 mM ATP; read-out: CRAF (inhibition of biochemical activity, IC50)
T2 construct: C-Raf residues 306-end; Y340D, Y341D with; GST (N); purchased Sigma

HPAF-II cells = test: HPAF-II Cell Proliferation Assay; type: cell-based; conditions: Homo sapiens, HPAF-II, HPAF-II cells; Table 2; read-out: Inhibition of cell proliferation in HPAF-II (IC50 class)
Procedure: HPAF-II cells (catalog #CRL-1997) are obtained from the American Type Culture Collect (ATCC, Manassas, VA). Briefly, cells are grown in Minimum Essential Media supplemented with 10% characterized fetal bovine serum (Invitrogen, Carlsbad, CA) and 1% Penicillin/Streptomycin/L-Glutamine at 37° C., 5% CO2, and 95% humidity. Cells are expanded until reaching 70-95% confluency at which point they are sub-cultured or harvested for assay use. A serial dilution of test compound is dispensed into a 384-well black clear bottom plate in triplicate. 750 cells are added per well in 50 μL complete growth medium in the 384-well plate. Plates are incubated for 115 to 120 hours at 37° C., 5% CO2, and 95% humidity. At the end of the incubation, 40 μL of a 440 μM solution of resazurin (Sigma, St. Louis, MO) in PBS is added to each well of the plate and plates are incubated for an additional 18 to 24 hours at 37° C., 5% CO2, and 95% humidity. Plates are read on a Synergy2 or equivalent reader (Biotek, Winooski, VT) using an excitation of 540 nm and an emission of 600 nm. Data is analyzed using Prism software (Graphpad, San Diego, CA) to calculate IC50 values.

[3] = Homo sapiens, MIA PaCa-2, MiaPaca-2 cells

T1 sequence (P15056 416-766): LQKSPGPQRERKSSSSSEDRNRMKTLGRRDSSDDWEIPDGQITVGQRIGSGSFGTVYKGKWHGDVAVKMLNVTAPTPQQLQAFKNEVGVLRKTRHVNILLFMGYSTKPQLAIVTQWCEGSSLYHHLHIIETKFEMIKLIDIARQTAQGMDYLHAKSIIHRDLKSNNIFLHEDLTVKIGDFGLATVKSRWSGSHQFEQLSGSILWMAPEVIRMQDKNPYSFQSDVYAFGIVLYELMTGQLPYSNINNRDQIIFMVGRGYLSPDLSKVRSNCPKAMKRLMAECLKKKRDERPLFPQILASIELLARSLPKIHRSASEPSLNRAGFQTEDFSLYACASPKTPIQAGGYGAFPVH
T2 sequence (P04049 307-648 Y340D/Y341D): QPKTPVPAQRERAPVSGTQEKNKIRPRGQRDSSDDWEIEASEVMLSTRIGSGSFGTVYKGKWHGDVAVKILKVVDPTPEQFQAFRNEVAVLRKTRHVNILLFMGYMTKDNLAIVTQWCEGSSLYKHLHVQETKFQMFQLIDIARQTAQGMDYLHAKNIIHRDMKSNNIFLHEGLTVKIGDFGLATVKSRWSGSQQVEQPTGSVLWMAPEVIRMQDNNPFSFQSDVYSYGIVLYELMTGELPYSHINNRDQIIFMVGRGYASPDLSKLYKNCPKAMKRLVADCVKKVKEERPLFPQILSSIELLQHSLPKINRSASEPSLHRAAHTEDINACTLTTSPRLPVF

SMILES | IC50 (MiaPaca-2 cells; [3]) [nM] | IC50 [1] [nM] | IC50 (HCT-116 cells) [nM] | IC50 (Pa16c cells) [nM] | IC50 [2] [nM] | IC50 (HPAF-II cells) [nM] | IC50 (MiaPaca-2 cells; MiaPaca-2 cells) [nM]
Cc1ccc(NC(=O)c2cc(C3CCC3)cnn2)cc1-c1ccnc(-c2ccnc(NC(=O)C3CC3)c2)c1 [Example 44] | < 100 | < 100 | < 100 | < 100 | < 100 | 100 to 500 | 
Cc1ccc(NC(=O)c2cncc(C(C)(F)F)c2)cc1-c1ccnc(-c2ccnc(NC(=O)C3CC3)c2)c1 [Example 82] | 500 to 1000 | < 100 | 100 to 500 | 1000 to 10000 | < 100 | 500 to 1000 | 
Cc1ccc(NC(=O)c2cc(C(C)(C)F)cnn2)cc1-c1cncc(-c2cc(NC(=O)C3CC3)ncn2)c1 [Example 62] | 100 to 500 | < 100 | < 100 | 500 to 1000 | < 100 | < 100 | 
Cc1ccc(NC(=O)c2cncc(C(C)(C)C#N)c2)cc1-c1ccnc(-c2ccnc(NC(=O)C3CC3)c2)c1 [Example 105] | 100 to 500 | < 100 | < 100 | 1000 to 10000 | < 100 | 100 to 500 | 
Cc1ccc(NC(=O)c2cc(C(F)(F)F)cnn2)cc1-c1ccnc(-c2ccnc(NC(=O)C3(C)CC3)c2)c1 [Example 41] | 100 to 500 | 100 to 500 | 100 to 500 | < 100 | < 100 | 1000 to 10000 | 
Cc1ccc(NC(=O)c2cncc(C(F)(F)F)c2)cc1-c1ccnc(-c2ccnc(NC(=O)C3CC3)c2)c1 [Example 78] | 500 to 1000 | < 100 | 100 to 500 | 1000 to 10000 | < 100 | 100 to 500 | 
Cc1ccc(NC(=O)c2cc(C3CC3)cnn2)cc1-c1ccnc(-c2cnn(C)n2)c1 [Example 141] | 500 to 1000 | 100 to 500 | 500 to 1000 | 500 to 1000 | 100 to 500 | 500 to 1000 | 
COC(=O)Nc1cc(-c2cncc(-c3cc(NC(=O)c4ccc(C(F)(F)F)nc4)ccc3C)c2)ccn1 [Example 74] | 100 to 500 | 100 to 500 |  |  | < 100 |  | 
COC(=O)Nc1cc(-c2cccc(-c3cc(NC(=O)c4ccc(C(F)(F)F)nc4)cnc3C)c2)ccn1 [Example 32] | 500 to 1000 | 100 to 500 |  |  | < 100 |  | 
CC(=O)Nc1cc(-c2cccc(-c3cc(NC(=O)c4ccc(C(F)F)nc4)ccc3C)n2)ccn1 [Example 85] | 500 to 1000 | 100 to 500 |  |  | < 100 |  | 
Cc1ccc(NC(=O)c2cc(C(F)(F)F)cnn2)cc1-c1ccnc(-c2cnsc2)c1 [Example 132] | 100 to 500 |  | 100 to 500 | 100 to 500 |  | 100 to 500 | 
CC(=O)Nc1cc(-c2nccc(-c3cc(NC(=O)c4ccc(C(F)F)nc4)ccc3C)n2)ccn1 [Example 14] | 100 to 500 | 100 to 500 |  |  | < 100 |  | 
COC(=O)Nc1cc(-c2cccc(-c3cc(NC(=O)c4ccc(C(F)(F)F)nc4)cnc3C)c2)ncn1 [Example 33] | 1000 to 10000 | 500 to 1000 |  |  | < 100 |  | 
Cc1ccc(NC(=O)c2cc(C(F)(F)F)cnn2)cc1-c1cc(N[C@H](C)CO)nc(-c2c[nH]nc2N)c1 [Example 153] | 100 to 500 | 100 to 500 | 100 to 500 |  | < 100 | 1000 to 10000 | 
COC(=O)Nc1cc(-c2cc(-c3cc(NC(=O)c4ccc(C(F)(F)F)nc4)ccc3C)cc(OCCO)n2)ccn1 [Example 77] |  | < 100 |  |  | < 100 |  | 1000 to 10000
Cc1ccc(NC(=O)c2cc(C#N)cnn2)cc1-c1cc(N[C@H](C)CO)nc(-c2cn[nH]c2)c1 [Example 152] | < 100 | 100 to 500 | 100 to 500 |  | 100 to 500 | 500 to 1000 | 
CC(=O)Nc1cc(-c2cc(-c3cc(NC(=O)c4ccc(C(F)(F)F)nc4)ccc3C)nn(C)c2=O)ccn1 [Example 12] | 1000 to 10000 | 1000 to 10000 |  |  | 1000 to 10000 |  | 
Cc1ccc(NC(=O)c2ccc(C(F)(F)F)nc2)cc1-c1cncc(-c2cc(N)ncn2)c1 [Example 73] | 1000 to 10000 | 500 to 1000 |  |  | 500 to 1000 |  | 
COCC(=O)Nc1cc(-c2cncc(-c3cc(NC(=O)c4ccc(C(F)F)nc4)ccc3C)n2)ccn1 [Example 89] | 1000 to 10000 | 1000 to 10000 | 1000 to 10000 |  | 100 to 500 |  | 
CC(=O)Nc1cc(-c2cc(-c3cc(NC(=O)c4ccc(C(F)(F)F)nc4)ccc3C)cn(C)c2=O)ccn1 [Example 28] | 1000 to 10000 | 100 to 500 |  |  | < 100 |  | 
CC(=O)Nc1cc(-c2cc(-c3cc(NC(=O)c4ccc(C(F)(F)F)nc4)ccc3C)cn(CCO)c2=O)ccn1 [Example 29] | 1000 to 10000 | 1000 to 10000 |  |  | 1000 to 10000 |  | 
Cc1ccc(NC(=O)c2ccc(C(F)F)nc2)cc1-c1ccnc(-c2ccnc(NC(=O)C3CC3)c2)c1 [Example 25] | 500 to 1000 | < 100 | 100 to 500 |  | < 100 |  | 
COC(=O)Nc1cc(-c2cc(-c3cc(NC(=O)c4ccc(C(F)(F)F)nc4)cnc3C)ccn2)ccn1 [Example 31] | 1000 to 10000 | 1000 to 10000 |  |  | 100 to 500 |  | 
COC(=O)Nc1cc(-c2cc(-c3cc(NC(=O)c4ccc(C(F)(F)F)nc4)c(F)cc3C)nc(C)n2)ccn1 [Example 21] | < 100 | 1000 to 10000 |  |  | 500 to 1000 |  | 
COC(=O)Nc1cc(-c2cncc(-c3cc(NC(=O)c4ccc(C(F)(F)F)nc4)c(F)cc3C)c2)ccn1 [Example 3, methyl (5-(4-fluoro-2-methyl-5-(6-(trifluoromethyl)nicotinamido)phenyl)-[3,4′-bipyridin]-2′-yl)carbamate] | < 100 | 100 to 500 | < 100 |  | < 100 |  | 
COC(=O)Nc1cc(-c2nccc(-c3cc(NC(=O)c4ccc(C(F)(F)F)nc4)ccc3C)n2)ccn1 [Example 30] |  | 1000 to 10000 |  |  | < 100 |  | 1000 to 10000
